Laboratory results reported in US11590139B2, “Substituted aminopurine compounds, compositions thereof, and methods of treatment therewith” (Signal Pharmaceuticals, LLC, priority 2014, dated 2023).

Tested on: Lox-IMVI melanoma cell line
Assay: Lox-IMVI anti-proliferative assay (growth inhibition, Cell Titer-Glo)
Type: cell-based, human
Conditions: Homo sapiens; IC50 activity level in the cell-based Lox-IMVI anti-proliferative assay; read-out: Activity
Summary of the method: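 First, compound was dispensed as a 10-point 3-fold series (0.5 nM–10 μM, duplicate). Then cells in RPMI + 10% FBS were added and grown 72 h at 37 °C with 0.2% DMSO. Finally, ATP luminescence was read and IC50 calculated versus DMSO control.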

SMILES | IC50 [µM]
NC(=O)[C@H]1CC[C@@H](n2c(Nc3ccc(F)c(F)c3F)nc3cnc(N[C@@H]4CC[C@@H](O)C4)nc32)CC1 [Example 220, (1S,4s)-4-(2-((1R,3R)-3-hydroxycyclopentylamino)-8-(2,3,4-trifluorophenylamino)-9H-purin-9-yl)cyclohexanecarboxamide] | > 1
NC(=O)[C@H]1CC[C@@H](n2c(Nc3c(F)cc(Cl)cc3F)nc3cnc(N[C@@H]4CCOC4)nc32)CC1 [Example 221, (1S,4s)-4-(8-(4-chloro-2,6-difluorophenylamino)-2-((R)-tetrahydrofuran-3-ylamino)-9H-purin-9-yl)cyclohexanecarboxamide] | 0.5 to 1
NC(=O)[C@H]1CC[C@@H](n2c(Nc3c(Cl)cc(F)cc3Cl)nc3cnc(N[C@@H]4CCOC4)nc32)CC1 [Example 222, (1S,4s)-4-(8-(2,6-dichloro-4-fluorophenylamino)-2-((R)-tetrahydrofuran-3-ylamino)-9H-purin-9-yl)cyclohexanecarboxamide] | 0.5 to 1
NC(=O)[C@H]1CC[C@@H](n2c(Nc3c(F)cc(Cl)cc3Cl)nc3cnc(N[C@@H]4CCOC4)nc32)CC1 [Example 223, (1S,4s)-4-(8-(2,4-dichloro-6-fluorophenylamino)-2-((R)-tetrahydrofuran-3-ylamino)-9H-purin-9-yl)cyclohexanecarboxamide] | 0.25 to 0.5
NC(=O)[C@H]1CC[C@@H](n2c(Nc3c(Cl)cc(Cl)cc3Cl)nc3cnc(NC4CC(F)(F)C4)nc32)CC1 [Example 224, (1s,4s)-4-(2-(3,3-difluorocyclobutylamino)-8-(2,4,6-trichlorophenylamino)-9H-purin-9-yl)cyclohexanecarboxamide] | > 1
NC(=O)[C@H]1CC[C@@H](n2c(Nc3c(F)cccc3Cl)nc3cnc(NC4CC(F)(F)C4)nc32)CC1 [Example 225, (1s,4s)-4-(8-(2-chloro-6-fluorophenylamino)-2-(3,3-difluorocyclobutylamino)-9H-purin-9-yl)cyclohexanecarboxamide] | > 1
NC(=O)[C@H]1CC[C@@H](n2c(Nc3c(F)cc(F)cc3F)nc3cnc(NC4CC(F)(F)C4)nc32)CC1 [Example 226, (1s,4s)-4-(2-(3,3-difluorocyclobutylamino)-8-(2,4,6-trifluorophenylamino)-9H-purin-9-yl)cyclohexanecarboxamide] | > 1
NC(=O)[C@H]1CC[C@@H](n2c(Nc3c(F)cccc3F)nc3cnc(NC4CC(F)(F)C4)nc32)CC1 [Example 227, (1s,4s)-4-(2-(3,3-difluorocyclobutylamino)-8-(2,6-difluorophenylamino)-9H-purin-9-yl)cyclohexanecarboxamide] | > 1
NC(=O)[C@H]1CC[C@@H](n2c(Nc3c(F)cc(F)cc3Cl)nc3cnc(NC4CC(F)(F)C4)nc32)CC1 [Example 228, (1s,4s)-4-(8-(2-chloro-4,6-difluorophenylamino)-2-(3,3-difluorocyclobutylamino)-9H-purin-9-yl)cyclohexanecarboxamide] | 0.5 to 1
NC(=O)[C@H]1CC[C@@H](n2c(Nc3c(F)cc(Cl)cc3F)nc3cnc(NC4CC(F)(F)C4)nc32)CC1 [Example 229, (1s,4s)-4-(8-(4-chloro-2,6-difluorophenylamino)-2-(3,3-difluorocyclobutylamino)-9H-purin-9-yl)cyclohexanecarboxamide] | > 1
NC(=O)[C@H]1CC[C@@H](n2c(Nc3c(F)cc(Cl)cc3Cl)nc3cnc(NC4CC(F)(F)C4)nc32)CC1 [Example 230, (1s,4s)-4-(8-(2,4-dichloro-6-fluorophenylamino)-2-(3,3-difluorocyclobutylamino)-9H-purin-9-yl)cyclohexanecarboxamide] | 0.25 to 0.5
NC(=O)[C@H]1CC[C@@H](n2c(Nc3c(Cl)cc(F)cc3Cl)nc3cnc(NC4CC(F)(F)C4)nc32)CC1 [Example 231, (1s,4s)-4-(8-(2,6-dichloro-4-fluorophenylamino)-2-(3,3-difluorocyclobutylamino)-9H-purin-9-yl)cyclohexanecarboxamide] | > 1
NC(=O)[C@H]1CC[C@@H](n2c(Nc3ccc(Cl)c(F)c3F)nc3cnc(NC4CC(F)(F)C4)nc32)CC1 [Example 232, (1s,4s)-4-(8-(4-chloro-2,3-difluorophenylamino)-2-(3,3-difluorocyclobutylamino)-9H-purin-9-yl)cyclohexanecarboxamide] | > 1
NC(=O)[C@H]1CC[C@@H](n2c(Nc3c(F)ccc(F)c3F)nc3cnc(NC4CC(F)(F)C4)nc32)CC1 [Example 233, (1s,4s)-4-(2-(3,3-difluorocyclobutylamino)-8-(2,3,6-trifluorophenylamino)-9H-purin-9-yl)cyclohexanecarboxamide] | 0.5 to 1
NC(=O)[C@H]1CC[C@@H](n2c(Nc3c(F)ccc(Cl)c3F)nc3cnc(NC4CC(F)(F)C4)nc32)CC1 [Example 234, (1s,4s)-4-(8-(3-chloro-2,6-difluorophenylamino)-2-(3,3-difluorocyclobutylamino)-9H-purin-9-yl)cyclohexanecarboxamide] | > 1
NC(=O)[C@H]1CC[C@@H](n2c(Nc3c(F)cccc3Cl)nc3cnc(NC4CCC(F)(F)CC4)nc32)CC1 [Example 235, (1s,4s)-4-(8-(2-chloro-6-fluorophenylamino)-2-(4,4-difluorocyclohexylamino)-9H-purin-9-yl)cyclohexanecarboxamide] | 0.5 to 1
NC(=O)[C@H]1CC[C@@H](n2c(Nc3c(Cl)cccc3Cl)nc3cnc(NC4CCC(F)(F)CC4)nc32)CC1 [Example 236, (1s,4s)-4-(8-(2,6-dichlorophenylamino)-2-(4,4-difluorocyclohexylamino)-9H-purin-9-yl)cyclohexanecarboxamide] | 0.25 to 0.5
NC(=O)[C@H]1CC[C@@H](n2c(Nc3cccc(Cl)c3F)nc3cnc(NC4CCC(F)(F)CC4)nc32)CC1 [Example 237, (1s,4s)-4-(8-(3-chloro-2-fluorophenylamino)-2-(4,4-difluorocyclohexylamino)-9H-purin-9-yl)cyclohexanecarboxamide] | > 1
NC(=O)[C@H]1CC[C@@H](n2c(Nc3cc(F)c(Cl)cc3F)nc3cnc(NC4CCC(F)(F)CC4)nc32)CC1 [Example 238, (1s,4s)-4-(8-(4-chloro-2,5-difluorophenylamino)-2-(4,4-difluorocyclohexylamino)-9H-purin-9-yl)cyclohexanecarboxamide] | > 1
NC(=O)[C@H]1CC[C@@H](n2c(Nc3c(F)ccc(F)c3F)nc3cnc(NC4CCC(F)(F)CC4)nc32)CC1 [Example 239, (1s,4s)-4-(2-(4,4-difluorocyclohexylamino)-8-(2,3,6-trifluorophenylamino)-9H-purin-9-yl)cyclohexanecarboxamide] | 0.5 to 1
NC(=O)[C@H]1CC[C@@H](n2c(Nc3ccc(Cl)cc3Cl)nc3cnc(NC4CCC(F)(F)CC4)nc32)CC1 [Example 240, (1s,4s)-4-(8-(2,4-dichlorophenylamino)-2-(4,4-difluorocyclohexylamino)-9H-purin-9-yl)cyclohexanecarboxamide] | > 1
NC(=O)[C@H]1CC[C@@H](n2c(Nc3c(F)cc(F)cc3Cl)nc3cnc(N[C@H]4CCOC4)nc32)CC1 [Example 241, (1R,4s)-4-(8-(2-chloro-4,6-difluorophenylamino)-2-((S)-tetrahydrofuran-3-ylamino)-9H-purin-9-yl)cyclohexanecarboxamide] | > 1
NC(=O)[C@H]1CC[C@@H](n2c(Nc3c(F)cc(Cl)cc3F)nc3cnc(N[C@H]4CCOC4)nc32)CC1 [Example 242, (1R,4s)-4-(8-(4-chloro-2,6-difluorophenylamino)-2-((S)-tetrahydrofuran-3-ylamino)-9H-purin-9-yl)cyclohexanecarboxamide] | 0.5 to 1
NC(=O)[C@H]1CC[C@@H](n2c(Nc3c(Cl)cc(F)cc3Cl)nc3cnc(N[C@H]4CCOC4)nc32)CC1 [Example 243, (1R,4s)-4-(8-(2,6-dichloro-4-fluorophenylamino)-2-((S)-tetrahydrofuran-3-ylamino)-9H-purin-9-yl)cyclohexanecarboxamide] | 0.5 to 1
NC(=O)[C@H]1CC[C@@H](n2c(Nc3c(F)cc(Cl)cc3Cl)nc3cnc(N[C@H]4CCOC4)nc32)CC1 [Example 244, (1R,4s)-4-(8-(2,4-dichloro-6-fluorophenylamino)-2-((S)-tetrahydrofuran-3-ylamino)-9H-purin-9-yl)cyclohexanecarboxamide] | 0.5 to 1
NC(=O)[C@H]1CC[C@@H](n2c(Nc3c(F)cc(F)cc3Cl)nc3cnc(N[C@H]4CCCOC4)nc32)CC1 [Example 245, (1R,4s)-4-(8-(2-chloro-4,6-difluorophenylamino)-2-((S)-tetrahydro-2H-pyran-3-ylamino)-9H-purin-9-yl)cyclohexanecarboxamide] | > 1
NC(=O)[C@H]1CC[C@@H](n2c(Nc3c(Cl)cc(Cl)cc3Cl)nc3cnc(N[C@H]4CCOC[C@@H]4F)nc32)CC1 [Example 246, (1R,4s)-4-(2-((3R,4S)-3-fluorotetrahydro-2H-pyran-4-ylamino)-8-(2,4,6-trichlorophenylamino)-9H-purin-9-yl)cyclohexanecarboxamide] | 0.5 to 1
NC(=O)[C@H]1CC[C@@H](n2c(Nc3c(F)cccc3F)nc3cnc(N[C@H]4CCOC[C@@H]4F)nc32)CC1 [Example 247, (1R,4s)-4-(8-(2,6-difluorophenylamino)-2-((3R,4S)-3-fluorotetrahydro-2H-pyran-4-ylamino)-9H-purin-9-yl)cyclohexanecarboxamide] | > 1
N#Cc1ccc(Nc2nc3cnc(NC4CCOCC4)nc3n2[C@H]2CC[C@@H](C(N)=O)CC2)c(Cl)c1 [Example 248, (1s,4s)-4-(8-(2-chloro-4-cyanophenylamino)-2-(tetrahydro-2H-pyran-4-ylamino)-9H-purin-9-yl)cyclohexanecarboxamide] | 0.5 to 1
NC(=O)[C@H]1CC[C@@H](n2c(Nc3c(F)cc(F)cc3F)nc3cnc(N[C@@H]4CCC[C@H]4O)nc32)CC1 [Example 249, (1S,4s)-4-(2-((1R,2R)-2-hydroxycyclopentylamino)-8-(2,4,6-tnfluorophenylamino)-9H-purin-9-yl)cyclohexanecarboxamide] | > 1
